In patent US20230286925A1, “PHENYL TRIAZOLE MLL1-WDR5 PROTEIN-PROTEIN INTERACTION INHIBITOR” (HUYABIO International, LLC, priority 2022, published 2023) one finds GI50 and IC50 data, which are given here for 26 compounds.

Read-outs that look alike come from different tables or passages of the source.

For one assay, the system named is MV-411 cells. As to the kind of experiment: Anti-proliferative activity against leukemia cells (CellTiterGlo viability, 72 hrs). The format is cell-based. The procedure: Procedure: MV-411 or Molm-13 cells were seeded into 384 well plates at 2000 cells/well density in 50 uL according plate map and were allowed to naturally sediment by waiting about 30 min in Clean Bench. Next, plated cells were centrifuged for 1 min at 1000 rpm and the excess cells were transferred into the flasks for further culture. Cells in the assay plates were incubated (at least 4 hrs) at 37° C., 5% CO2 for next process followed by adding the compounds as the plate map indicated. The tests were performed in duplicates with treatment of compounds at 10 pts 3 fold titration in 384 well plates. Taxol was as positive control while DMSO as negative control. To rule out edge effect, the wells on the edge were not seeded and therefore one 384 well plate holds 13 compounds. Cells viability was measured 72 hrs after incubation with compounds and using CellTiterGlo (promega) viability assay according to manufactory's instruction to check the ATP production in each well.
Experiments on anti-proliferative activity against leukemia cells were conducted with some of the compounds of the invention.

Assay [1] addresses MLL1-WDR5 protein-protein interaction (Homo sapiens (Human), UniProt P61964). As to the kind of experiment: WDR5 TR-FRET assay of inhibition against MLL1-WDR5 protein-protein interaction. It counts as binding. The procedure:
WDR5 TR-FRET Assay Procedure: Stock compounds were transferred to the assay plate by Echo Liquid Handler. Reactions were performed in the assay buffer (1×PBS, 300 mM NaCl, 0.5 mM TCEP, 0.1% CHAPS) containing 5 nM WDR5 protein, 10 nM peptide (Ac-ARTEVHLRKS-[Ahx-Ahx] [C]-Alexa Fluor 488-NH2) and 0.25 nM Tb-anti His antibody (Tb-Ab) in 384-well white plate (PerkinElmer) with a final volume of 20 μl. Compounds were incubated with WDR5 protein for 30 min at room temperature. Plates were covered, protected from light and incubated for 60 min at room temperature after adding the peptide and Tb-Ab. EnVision Multimode Plate Reader (PerkinElmer) was used for the TR-FRET assay with excitation wavelength at 340 nm and emission wavelength at 495 and 520 nm. The ratio of the 520/495 wavelengths were used to assess the degree of the FRET signal. IC50 was calculated by fitting the inhibition data using XLfit software to sigmoidal dose-response model.
Biphenyl compound DDO-2084 was reported to be a small molecule inhibitor that can inhibit MLL1-WDR5 protein-protein interaction, reduce MLL1 enzyme catalytic activity, and downregulate the expression of Hox and Meis-1 genes (Eur. J. Med. Chem. 2016, 124, 480-489). DDO-2084 is used as a positive control compound.

Setting [2] is: MV4-11, MV-411 human acute monocytic leukemia cell, Table 7.
Where [3] appears, read: Table 7, read-out: WDR5 TR-FRET Assay (IC50 nM).
Where [4] appears, read: MV4-11, MV-411 human acute monocytic leukemia cell, Table 6.
Setting [5] is: WDR5 TR-FRET, 5 nM WDR5 protein, 10 nM peptide, read-out: MLL1-WDR5 PPI inhibitory activity.

On to `C[C@@H]1CN(c2ccc(-c3cc(CNC4CCCCC4)ccc3F)cc2Nc2ncnc(Cl)c2N)C[C@H](C)N1C` [DDO-2213_030, 6-chloro-N4-(5′-((cyclohexylamino)methyl)-2′-fluoro-4-((3S,5R)-3,4,5-trimethylpiperazin-1-yl)-[1,1′-biphenyl]-3-yl)pyrimidine-4,5-diamine], for which, in the assay on MV-411 cells (setting [2]), the GI50 stood at 2.43 µM. The IC50 in assay [1] (setting [3]) was 418 nM.

In the assay on MV-411 cells (setting [4]), `COc1ccc(COC(=O)c2cn(-c3ccc(N4CCN(C)CC4)c(NC(=O)c4cc(N)c(F)c(C)c4Cl)c3)nn2)cc1` [HYBI_010] came in with a GI50 of 5.95 µM. The IC50 in assay [1] (setting [5]) is 9.62 nM.

Regarding `CN1CCN(c2ccc(-n3cc(C(=O)NCCCN4CCOCC4)nn3)cc2NC(=O)c2cc(O)cc(F)c2F)CC1` [HYBI_047], halving of growth in the assay with MV-411 cells (setting [4]) (GI50) required 16.8 µM. Besides, the IC50 in assay [1] (setting [5]) was determined as 466 nM.

As to `C[C@H]1CN(c2cc(F)c(-c3ccc(C(=O)NCC4CCOCC4)cc3)cc2Nc2ncnc(Cl)c2N)CCN1C` [DDO-2213_016, (S)-5′-((5-amino-6-chloropyrimidin-4-yl)amino)-4′-(3,4-dimethylpiperazin-1-yl)-2′-fluoro-N-((tetrahydro-2H-pyran-4-yl)methyl)-[1,1′-biphenyl]-4-carboxamide], in the assay with MV-411 cells (setting [2]), halving of growth (GI50) required 6.31 µM. The IC50 in assay [1] (setting [3]) turned out to be 12.2 nM.

In turn, `Cc1c(F)c(N)cc(C(=O)Nc2cc(-n3cc(C(=O)OC4(C)CCC4)nn3)ccc2N2CCN(C)CC2)c1Cl` [HYBI_018] had a GI50 in the assay on MV-411 cells (setting [4]) of 5.99 µM. The IC50 in assay [1] (setting [5]) is 16.8 nM.

`Cc1c(F)c(N)cc(C(=O)Nc2cc(-n3cc(C(=O)NCCCN4CCN(C)CC4)nn3)c(F)cc2N2C[C@@H](C)N(C)[C@@H](C)C2)c1Cl` [HYBI_101] displayed a GI50 with MV-411 cells (setting [4]) of 10.5 µM. In addition, the IC50 in assay [1] (setting [5]) is 3.65 nM.

In turn, `C[C@@H]1CN(c2cc(F)c(-n3cc(C(=O)N4CCOCC4)nn3)cc2Nc2ncnc(Cl)c2N)C[C@H](C)N1C` [DDO-2213_010, (1-(5-((5-amino-6-chloropyrimidin-4-yl)amino)-2-fluoro-4-((3S,5R)-3,4,5-trimethylpiperazin-1-yl)phenyl)-1H-1,2,3-triazol-4-yl)(morpholino)methanone] gave a GI50 in the assay on MV-411 cells (setting [2]) of 7.93 µM. Moreover, the IC50 in assay [1] (setting [3]) came out at 250 nM.

In the assay with MV-411 cells (setting [2]), `C[C@@H]1CN(c2cc(F)c(C3=CCCN(c4ncc(CN5CCOCC5)cn4)C3)cc2Nc2ncnc(Cl)c2N)C[C@H](C)N1C` [DDO-2213_026, 6-chloro-N^4-(4-fluoro-5-(1-(5-(morpholinomethyl)pyrimidin-2-yl)-1,2,5,6-tetrahydropyridin-3-yl)-2-((3S,5R)-3,4,5-trimethylpiperazin-1-yl)phenyl)pyrimidine-4,5-diamine] gave a GI50 of 12.7 µM. Further, the IC50 in assay [1] (setting [3]) turned out to be 18.6 nM.

For the compound “1-(3-(5-amino-2-chloro-4-fluoro-3-methylbenzamido)-4-(4-methylpiperazin-1-yl)phenyl)-N-(2-ethoxyethyl)-1H-1,2,3-triazole-4-carboxamide [HYBI_002]”, the GI50 with MV-411 cells (MV-411 human acute monocytic leukemia cell, Table 6) came out at 6.31 µM. In addition, the IC50 in assay [1] (setting [5]) is 44.2 nM.

In the case of `Cc1c(F)c(N)cc(C(=O)Nc2cc(-n3cc(C(=O)N4CCOCC4)nn3)c(F)cc2N2C[C@@H](C)N(C)[C@@H](C)C2)c1Cl` [HYBI_083], halving of growth with MV-411 cells (setting [4]) (GI50) required 40.2 µM. The IC50 in assay [1] (setting [5]) is 3.08 nM.

In the assay with MV-411 cells (setting [4]), `Cc1c(F)c([N+](=O)[O-])cc(C(=O)Nc2cc(-n3cc(C(=O)NCCCN4CCOCC4)nn3)ccc2N2CCN(C)CC2)c1Cl` [HYBI_039] came in with a GI50 of 0.108 µM. Moreover, in assay [1] (setting [5]), the IC50 turned out to be 131 nM.

Turning to `CN1CCN(c2ccc(-n3cc(C(=O)NCCCN4CCOCC4)nn3)cc2NC(=O)c2cc(Cl)cc(Cl)c2)CC1` [HYBI_045], it took 4.15 µM to inhibit growth in the assay on MV-411 cells (setting [4]) by half (GI50). In assay [1] (setting [5]), the IC50 was determined as 384 nM.

For the compound `C[C@@H]1CN(c2cc(F)c(-c3ccc(CN4CCOCC4)cc3)cc2Nc2ncnc(Cl)c2N)C[C@H](C)N1C` [DDO-2213_018, 6-chloro-N4-(6-fluoro-4′-(morpholinomethyl)-4-((3S,5R)-3,4,5-trimethylpiperazin-1-yl)-[1,1′-biphenyl]-3-yl)pyrimidine-4,5-diamine], the GI50 in the assay on MV-411 cells (setting [2]) was determined as 10.8 µM. In assay [1] (setting [3]), the IC50 worked out at 110 nM.

`Cc1c(F)c(N)cc(C(=O)Nc2cc(-n3cc(C(=O)NCC4CCCCC4)nn3)c(F)cc2N2C[C@@H](C)N(C)[C@@H](C)C2)c1Cl` [HYBI_110] showed a GI50 in the assay on MV-411 cells (setting [4]) of 25 µM. For the same compound, the IC50 in assay [1] (setting [5]) stood at 3 nM.

With `Cc1c(F)c(N)cc(C(=O)Nc2cc(-n3cc(C(=O)NC4CCCCC4)nn3)c(F)cc2N2C[C@@H](C)N(C)[C@@H](C)C2)c1Cl` [HYBI_085], the GI50 in the assay with MV-411 cells (setting [4]) came to 2.51 µM. Further, in assay [1] (setting [5]), the IC50 was 3.86 nM.

For `Cc1c(F)c(N)cc(C(=O)Nc2cc(-n3cc(C(=O)OCC(C)C)nn3)ccc2N2CCN(C)CC2)c1Cl` [HYBI_003, isobutyl 1-(3-(5-amino-2-chloro-4-fluoro-3-methylbenzamido)-4-(4-methylpiperazin-1-yl)phenyl)-1H-1,2,3-triazole-4-carboxylate], the GI50 with MV-411 cells (setting [4]) was determined as 3.41 µM. For the same compound, the IC50 in assay [1] (setting [5]) came to 15.6 nM.

In the case of `C[C@@H]1CN(c2cc(F)c(-c3cccc(CN4CCOCC4)c3)cc2Nc2ncnc(Cl)c2N)C[C@H](C)N1C` [DDO-2213_019, 6-chloro-N4-(6-fluoro-3′-(morpholinomethyl)-4-((3S,5R)-3,4,5-trimethylpiperazin-1-yl)-[1,1′-biphenyl]-3-yl)pyrimidine-4,5-diamine], in the assay on MV-411 cells (setting [2]), the GI50 is 6.98 µM. Also, the IC50 in assay [1] (setting [3]) turned out to be 215 nM.

As to `C[C@@H]1CN(c2ccc(-c3ccc(NC(=O)C4CCCCC4)cc3)c(F)c2Nc2ncnc(Cl)c2N)C[C@H](C)N1C` [DDO-2213_014, N-(3′-((5-amino-6-chloropyrimidin-4-yl)amino)-2′-fluoro-4′-((3S,5R)-3,4,5-trimethylpiperazin-1-yl)-[1,1′-biphenyl]-4-yl)cyclohexanecarboxamide], halving of growth in the assay on MV-411 cells (setting [2]) (GI50) required 8.26 µM. Moreover, the IC50 in assay [1] (setting [3]) was determined as 186 nM.

In the assay on MV-411 cells (setting [2]), `C[C@@H]1CN(c2cc(F)c(-c3cnc(N4CCOCC4)nc3)cc2Nc2ncnc(Cl)c2N)C[C@H](C)N1C` [DDO-2213_021, 6-chloro-N4-(4-fluoro-5-(2-morpholinopyrimidin-5-yl)-2-((3S,5R)-3,4,5-trimethylpiperazin-1-yl)phenyl)pyrimidine-4,5-diamine] showed a GI50 of 9.01 µM. Further, the IC50 in assay [1] (setting [3]) came out at 23.4 nM.

Take `C[C@@H]1CN(c2cc(F)c(-c3ccnc(N4CCO[C@@H](C)C4)n3)cc2Nc2ncnc(Cl)c2N)C[C@H](C)N1C` [DDO-2213_029, 6-chloro-N4-(4-fluoro-5-(2-((S)-2-methylmorpholino)pyrimidin-4-yl)-2-((3S,5R)-3,4,5-trimethylpiperazin-1-yl)phenyl)pyrimidine-4,5-diamine]: growth in the assay with MV-411 cells (setting [2]) was halved (GI50) at 17.2 µM. Further, the IC50 in assay [1] (setting [3]) amounted to 12.9 nM.

Consider `Cc1c(F)c(N)cc(C(=O)Nc2cc(-n3cc(C(=O)NCCCN4CCOCC4)nn3)ccc2N2C[C@@H](C)N(C)[C@@H](C)C2)c1Cl` [HYBI_021], for which the GI50 in the assay on MV-411 cells (setting [4]) was 25.1 µM. Besides, the IC50 in assay [1] (setting [5]) worked out at 7.09 nM.

For `Cc1c(F)c(N)cc(C(=O)Nc2cc(-n3cc(C(=O)NCCCN4CCOCC4)nn3)c(F)cc2N2CCN(C)C(C)C2)c1Cl` (stereo not shown) [HYBI_027], it took 20 µM to inhibit growth in the assay with MV-411 cells (setting [4]) by half (GI50). The IC50 in assay [1] (setting [5]) came to 10.8 nM.

For the compound `CN1CCN(c2ccc(-n3cc(C(=O)NCCCN4CCOCC4)nn3)cc2NC(=O)c2ccc(F)c([N+](=O)[O-])c2)CC1` [HYBI_040], the concentration for 50% growth inhibition (GI50) in the assay on MV-411 cells (setting [4]) was 0.21 µM. For the same compound, in assay [1] (setting [5]), the IC50 worked out at 828 nM.

`C[C@@H]1CN(c2cc(F)c(-c3ccnc(OCC4CC4)c3)cc2Nc2ncnc(Cl)c2N)C[C@H](C)N1C` [DDO-2213_009, 6-chloro-N4-(5-(2-(cyclopropylmethoxy)pyridin-4-yl)-4-fluoro-2-((3S,5R)-3,4,5-trimethylpiperazin-1-yl)phenyl)pyrimidine-4,5-diamine] came in with a GI50 with MV-411 cells (setting [2]) of 1.69 µM. For the same compound, the IC50 in assay [1] (setting [3]) amounted to 33.9 nM.

Consider `C[C@@H]1CN(c2cc(F)c(-c3ccc(OCC4CC4)nc3)cc2Nc2ncnc(Cl)c2N)C[C@H](C)N1C` [DDO-2213_022, 6-chloro-N4-(5-(6-(cyclopropylmethoxy)pyridin-3-yl)-4-fluoro-2-((3S,5R)-3,4,5-trimethylpiperazin-1-yl)phenyl)pyrimidine-4,5-diamine], for which growth in the assay on MV-411 cells (setting [2]) was halved (GI50) at 3.68 µM. Also, in assay [1] (setting [3]), the IC50 was 41.2 nM.

The compound `CN1CCN(c2ccc(-n3cc(C(=O)NCCCN4CCOCC4)nn3)cc2NC(=O)c2ccc(F)c(C(F)(F)F)c2)CC1` [HYBI_042] gave a GI50 in the assay on MV-411 cells (setting [4]) of 4.75 µM. Further, the IC50 in assay [1] (setting [5]) worked out at 802 nM.
